Results from PubChem BioAssay (NCI).
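Abbreviation: GI50, concentration required for 50% inhibition of growth. The concentration for full growth arrest is given as TGI.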

Columns and labels:
Assay in all cases: inhibition of tumour cell growth, NCI panel, 384-well format
ACHN renal = tested on: ACHN renal
EKVX NSCLC = tested on: EKVX NSCLC
HL-60(TB) leukemia = tested on: HL-60(TB) leukemia
HOP-92 NSCLC = tested on: HOP-92 NSCLC
K-562 leukemia = tested on: K-562 leukemia
LOX IMVI melanoma = tested on: LOX IMVI melanoma
MDA-MB-435 melanoma = tested on: MDA-MB-435 melanoma
RXF 393 renal = tested on: RXF 393 renal
SF-268 CNS = tested on: SF-268 CNS
SK-OV-3 ovarian = tested on: SK-OV-3 ovarian
TK-10 renal = tested on: TK-10 renal
U251 glioblastoma = tested on: U251 glioblastoma
UO-31 renal = tested on: UO-31 renal

Compound: C[C@@H](Oc1cc(-n2cnc3ccc(CN4CCN(C)CC4)cc32)sc1C(N)=O)c1ccccc1C(F)(F)F
- GI50 (ACHN renal): 3.29 µM
- TGI (ACHN renal): 13.8 µM
- GI50 (EKVX NSCLC): 0.734 µM
- TGI (EKVX NSCLC): 4.19 µM
- GI50 (HL-60(TB) leukemia): 0.203 µM
- TGI (HL-60(TB) leukemia): 0.352 µM
- GI50 (HOP-92 NSCLC): 1.57 µM
- TGI (HOP-92 NSCLC): 5.26 µM
- GI50 (K-562 leukemia): 0.307 µM
- TGI (K-562 leukemia): 1.01 µM
- GI50 (LOX IMVI melanoma): 0.588 µM
- TGI (LOX IMVI melanoma): 1.95 µM
- GI50 (MDA-MB-435 melanoma): 0.244 µM
- TGI (MDA-MB-435 melanoma): 0.602 µM
- GI50 (RXF 393 renal): 0.192 µM
- TGI (RXF 393 renal): 0.565 µM
- GI50 (SF-268 CNS): 0.882 µM
- TGI (SF-268 CNS): 3.64 µM
- GI50 (SK-OV-3 ovarian): 0.402 µM
- TGI (SK-OV-3 ovarian): 2.6 µM
- GI50 (TK-10 renal): 1.22 µM
- TGI (TK-10 renal): 6.03 µM
- GI50 (U251 glioblastoma): 0.689 µM
- TGI (U251 glioblastoma): 5.08 µM
- GI50 (UO-31 renal): 2.67 µM
- TGI (UO-31 renal): 10.3 µM

Compound: Cc1cc(-c2nc(C(=O)Nc3cc4oc(N5CCOCC5)nc4nc3N3CC[C@@H](O)C3)co2)ccn1
- GI50 (ACHN renal): 19.8 µM
- TGI (ACHN renal): > 100 µM
- GI50 (EKVX NSCLC): 14.2 µM
- TGI (EKVX NSCLC): 71.2 µM
- GI50 (HL-60(TB) leukemia): 17.7 µM
- TGI (HL-60(TB) leukemia): 44.2 µM
- GI50 (HOP-92 NSCLC): 27.3 µM
- TGI (HOP-92 NSCLC): > 100 µM
- GI50 (K-562 leukemia): 34.9 µM
- TGI (K-562 leukemia): > 100 µM
- GI50 (LOX IMVI melanoma): 39.3 µM
- TGI (LOX IMVI melanoma): > 100 µM
- GI50 (MDA-MB-435 melanoma): 29.3 µM
- TGI (MDA-MB-435 melanoma): > 100 µM
- GI50 (RXF 393 renal): 12 µM
- TGI (RXF 393 renal): 64.1 µM
- GI50 (SF-268 CNS): 54.2 µM
- TGI (SF-268 CNS): > 100 µM
- GI50 (SK-OV-3 ovarian): 8.43 µM
- TGI (SK-OV-3 ovarian): 44.1 µM
- GI50 (TK-10 renal): 18.6 µM
- TGI (TK-10 renal): > 100 µM
- GI50 (U251 glioblastoma): 32.7 µM
- TGI (U251 glioblastoma): > 100 µM
- GI50 (UO-31 renal): 33.5 µM
- TGI (UO-31 renal): > 100 µM
